Reference: patent US7557103B2, “Imidazopyridazine compounds” (Eli Lilly and Company, priority 2005, dated 2009)
Numbering of substitutions follows the chain as printed. Where two headings read alike, the source gives them in different places.

Columns and labels:
in vivo = settings: male, Sprague-Dawley, rat, iv, 3 mg/kg
Protocol: (§1) To test for volume of distribution, Male Sprague Dawley rats (N=3) are administered a single 3 mg/kg intravenous dose of compound. Multiple plasma samples are collected at time points from 0.08 to 24 hours post-dose. The plasma samples are analyzed by LC/MS/MS to determine the plasma concentrations. Plasma pharmacokinetic calculations are performed to determine the pharmacokinetic parameters including Vdist and plasma clearance (Clp).

[1] = male, Sprague-Dawley, in vivo, iv, 3 mg/kg
Protocol: as §1

[2] = target: T1, binding of ^125I-sauvagine to the cerebellum (Rattus norvegicus, UniProt P35353); experiment: In vivo potency assessment using ex vivo binding; settings: oral route, ex vivo binding of 125I-sauvagine to the cerebellum
T1 construct: from tissue; host or cells: rat cerebellum
T1 sequence (P35353 24-415): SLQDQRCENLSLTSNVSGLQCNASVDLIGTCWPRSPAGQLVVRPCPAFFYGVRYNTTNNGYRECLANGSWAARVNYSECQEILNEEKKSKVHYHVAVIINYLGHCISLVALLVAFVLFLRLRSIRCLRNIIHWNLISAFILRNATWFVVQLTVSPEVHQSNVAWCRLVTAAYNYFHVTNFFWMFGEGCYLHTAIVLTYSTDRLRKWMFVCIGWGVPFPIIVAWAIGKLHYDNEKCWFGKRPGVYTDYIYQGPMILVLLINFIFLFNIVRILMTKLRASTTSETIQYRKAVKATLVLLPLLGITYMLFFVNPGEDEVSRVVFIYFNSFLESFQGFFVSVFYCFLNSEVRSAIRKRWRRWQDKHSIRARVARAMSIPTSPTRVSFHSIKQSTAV
Protocol: To assess in vivo potency, a compound of the present invention is evaluated using ex vivo binding. Using the procedures as provided in D. R. Gehlert et al., EJP 509: 145-153 (2005), a compound is administered to a rat via the oral route.

human CRF1 = target: T2, human CRF1 (Homo sapiens, UniProt P34998); experiment: CRF1 filter binding assay; settings: HEK-hCRF1 membranes, 125I-sauvagine; read-out: Ki (inhibition constant)
T2 construct: expressed in transfected cells; membranes
T2 sequence (P34998 24-415): T1 sequence (P35353 24-415) with R6H, N9S, T13A, V16I, V153M, A163G, V209I, H229Y, R356H
Protocol: The limitations of plasmid-based human CRF1 expression, in terms of generating a recombinant cell line with sufficient receptor density to develop a binding assay, are overcome by using a Phoenix retroviral expression system licensed from Stanford. The stable HEK-hCRF1 cell line is used to prepare membranes and binding reactions (200 μl) are set up as follows: 50 μl of ^125I-sauvagine (0.2 nM final), 50 μl compound and 100 μL CRF1 membrane (25 μg/reaction). The reactions are incubated at room temperature for 2 hours and then terminated by filtration through pre-treated FB Millipore glass fiber filter plates (96 well). The plates are wash twice with ice-cold assay buffer (50 mM tris, 12.5 mM NaCl, 1 mM EDTA, 10 mM MgCl2, 0.05% BSA, pH 7.2), air dried over night and counted with 100 μl Microscint 40 in a MicroBeta counter. Non-specific binding (NSB) is determined in the presence of 0.5 μM non-labeled sauvagine. Triplicate determinations are typically run and the median data points plotted by Graph Pad Prism.

human CRF2 = target: T3, human CRF2 (Homo sapiens, UniProt Q13324); experiment: CRF2 filter binding assay; settings: 50 μM compound, HEK-hCRF2 membranes, 125I-sauvagine; read-out: percent inhibition at 50 μM
T3 construct: expressed in transfected cells; membranes
T3 sequence (Q13324 1-411): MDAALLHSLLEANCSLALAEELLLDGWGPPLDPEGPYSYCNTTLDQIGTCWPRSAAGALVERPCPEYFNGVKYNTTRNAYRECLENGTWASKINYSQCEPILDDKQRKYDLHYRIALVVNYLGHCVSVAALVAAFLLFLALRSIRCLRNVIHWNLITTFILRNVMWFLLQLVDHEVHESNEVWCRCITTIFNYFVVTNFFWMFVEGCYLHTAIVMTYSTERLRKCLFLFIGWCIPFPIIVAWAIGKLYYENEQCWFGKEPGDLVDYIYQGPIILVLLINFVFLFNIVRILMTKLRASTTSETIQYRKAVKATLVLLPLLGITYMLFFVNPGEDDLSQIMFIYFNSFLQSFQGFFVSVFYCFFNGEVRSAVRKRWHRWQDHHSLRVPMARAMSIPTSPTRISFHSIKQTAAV
Protocol: The limitations of plasmid-based human CRF2 expression, in terms of generating a recombinant cell line with sufficient receptor density to develop a binding assay, are overcome by using a Phoenix retroviral expression system licensed from Stanford. The stable HEK-hCRF2 cell line is used to prepare membranes and binding reactions (200 A1) are set up as follows: 50 ul of ^125I-sauvagine (0.2 nM final concentration), 501 compound and 100 μl CRF2 membrane (25 μg/reaction). The reactions are incubated at room temperature for 2 hours and then terminated by filtration through pre-treated FB Millipore glass fiber filter plates (96 well). The plates are washed twice with ice-cold assay buffer (50 mM tris, 12.5 mM NaCl, 1 mM EDTA, 10 mM MgCl2, 0.05% BSA, pH 7.2), air dried over night and counted with 100 μl Microscint 40 in a MicroBeta counter. Non-specific binding (NSB) is determined in the presence of 0.5 μM non-labeled sauvagine. Alternatively, compounds are evaluated using a Scintillation Proximity assay. […] Bound radioactivity is assessed using a Wallac Trilux scintillation counter. Binding is assessed typically using triplicate determinations and the median data points plotted by Graph Pad Prism. […]

[3] = Rat intravenous pharmacokinetics (volume of distribution, plasma clearance); settings: for clearance: male, Sprague-Dawley, plasma, iv, 3 mg/kg; for rat Vdist: single intravenous dose (3 mg/kg)
Protocol: as §1

Compound | clearance (in vivo) | rat Vdist [1] | rat Vdist [3] | other results
CCC(CC)c1cc(C)nn2c(-c3cc4cc(F)ccc4n3C)c(C)nc12 [Example 8, 8-(1-ethyl-propyl)-2,6-dimethyl-3-(5-fluoro-1-methyl-indol-2-yl)-imidazo[1,2-b]pyridazine] | 1.74 L/h/kg | 17 L/kg | – | –
CCC(CC)c1cc(C)nn2c(-c3cc4ccc(Cl)cc4n3C)c(C)nc12 [Example 34, 3-(6-chloro-1-methyl-1H-indol-2-yl)-8-(1-ethyl-propyl)-2,6-dimethyl-imidazo[1,2-b]pyridazine] | 0.84 L/h/kg | 15 L/kg | – | ED50 [2]: 5.5 mg/kg
CCC(CC)c1cc(C)nn2c(-c3sc4ccccc4c3C)c(C)nc12 [Example 2, 8-(1-ethyl-propyl)-2,6-dimethyl-3-(3-methyl-benzo[b]thiophen-2-yl)-imidazo[1,2-b]pyridazine] | 0.72 L/h/kg | 10 L/kg | – | –
CCC(CC)c1cc(C)nn2c(-c3c(C)oc4c(C(C)(C)O)cccc34)c(C)nc12 [Example 88, 2-{3-[8-(1-ethyl-propyl)-2,6-dimethyl-imidazo[1,2-b]pyridazin-3-yl]-2-methyl-benzofuran-7-yl}-propan-2-ol] | – | – | – | Ki (human CRF1): 0.0192 ± 0.0048 µM; inhibition at 50 µM (human CRF2): 27 ± 3%
CCC(CC)c1cc(C)nn2c(-c3sc4ccc(F)cc4c3C)c(C)nc12 [Example 1, 8-(1-ethyl-propyl)-2,6-dimethyl-3-(5-fluoro-3-methyl-benzo[b]thiophen-2-yl)-imidazo[1,2-b]pyridazine] | – | – | 8 L/kg | clearance [3]: 0.54 L/h/kg; Ki (human CRF1): 0.0163 µM
CCCN(CCC)c1cc(C)nc2c(-c3cnc(N(C)C)cc3C)c(C)nn12 [NBI30775] | – | – | 76 L/kg | –
CCCCN(CC)c1nc(C)nc2c1c(C)cn2-c1c(C)cc(C)cc1C [CP154526] | – | – | 114 L/kg | clearance [3]: 4.98 L/h/kg
